These results are taken from patent US4239664A, “Anti-thrombogenic PVP-heparin polymer” (Research Corporation, priority 1978, dated 1980).

For series [1], the system named is anticoagulant activity. Kind of series: Biological (anticoagulant) activity of heparin and PVP-heparins. The series is classed as biochemical. Particulars: Table I; heparin 100.
The conditions of series [2]: in vivo; cited from earlier work.

For Heparin, the “Solubility in Water” value was 70 g/100 ml. Further, the “% Biological Activity” value in series [1] is on record as 100%. Besides, in series [2], the “dose dependence of half-life in man” value is on record as “does not increase” and the “half-life of heparin in man” value is reported as 1 - 11/2.
